Results reported in US20210220450A1, “TREATMENT OF AN IOP CONDITION” (The Research Foundation for The State University of New York, priority 2013, published 2021).

Columns and labels:
[1] = system: sheep of the Corriedale breed; experiment: Steroid-induced IOP elevation in sheep, intravitreal tPA (Examples 3, 4); assay type: in vivo
Description: Protocol 1. 8 sheep of the Corriedale breed were treated with prednisolone acetate three times a day in both eyes, leading to elevated IOP. After one week, the animals received intravitreal injections of human recombinant tPA (100, 200, 500 and 1000 μg, two animals each) dissolved in balanced salt solution (BSS) in one eye. IOP was monitored for 19 more days while the animals continued to receive treatment with prednisolone. Periodic slit lamp examination was also performed.
Protocol 2. In a second set of experiments, arginine was added to the BSS vehicle administered to the left eye to control for the relatively high concentration of the amino acid in the commercially available tPA lyophilisate. In these experiments all right eyes received 0.1 mg tPA, which concomitantly delivered 4.23 mg of arginine into the vitreous, and the left eye received this same amount of arginine, absent the tPA. On Day 1, prednisolone treatments were also begun simultaneously on both eyes.
Methods. In this experiment, the inventor sought to detect the effects of tPA treatment on prevention of steroid-induced IOP elevation. In 4 sheep tPA was injected in one eye (100 μg) and they were started on prednisolone acetate three times a day in both eyes. Animals were monitored for 11 days on continuous treatment.

Mmp-2, Mmp-9, Mmp-13 [2] = experiment: Mmp expression in protein treated PlatKO eyes (Example 14); assay type: in vivo, mouse; details: vs BSA treated eyes
Description: Tissue collection and confirmation of transgene expression: After outflow facility determination in adenovirus treated mice, mCherry expression in the TM was determined in all AdPLAT and AdPLATNE injected eyes. The eyes were dissected on ice to isolate a rim of tissue containing the TM by removing most of the iris and ciliary body. […] After observation, dissected rims were immediately immersed in RNA stabilizing agent (RNAlater, Invitrogen by ThermoFisher Scientific, Waltham, Mass., USA) and frozen. For TM tissue collection following protein treatment, all eyes were flash frozen in liquid nitrogen and subsequently dissected on ice to obtain the angle ring containing the TM tissues as previously described^43. Dissected TM tissues were immersed in RNAlater solution and then snap-frozen and stored at −80° C. until RNA extraction.
RNA isolation and quantitative real time PCR: Tissue collected was pooled (four eyes) and homogenized in TRIzol reagent (Life Technologies, Carlsbad, Calif., USA). RNA was isolated per the manufacturer's instructions and resuspended in nuclease-free water. RNA concentration was determined with a Nanodrop ND-1000 Spectrophotometer (ThermoFisher Scientific, Waltham, Mass., USA). cDNA was synthesized by using High-Capacity cDNA Reverse Transcription Kit (Applied Biosystems, Waltham, Mass., USA) according to manufacturer's protocol. Quantitative real-time PCR (qRT-PCR) was performed by using Green-2-Go qPCR Mastermix-ROX (BioBasic, Amherst, N.Y., USA) on a QuantStudio 6 Flex thermal cycler (Applied Biosystems, Carlsbad, Calif., USA).
mRNA expression of sheep PLAT and mouse Mmp-2, Mmp-9, and Mmp-13 in angle ring tissues was determined. Primers were designed by using Primer-BLAST (https://www.ncbi.nlm.nih.gov/tools/primer-blast/index.cgi?LINK_LOC=BlastHome; in the public domain) and their specificity was confirmed by the presence of a single band of the expected size on agarose gel electrophoresis. […] The relative fold change was calculated by using the ΔΔCt method. […]

[3] = system: Mmp-2, Mmp-9, Mmp-13, Plat; experiment: Mmp and Plat expression in protein treated C57BL/6J eyes not exposed to steroids (Example 15); assay type: in vivo, mouse; details: C57BL/6J not exposed to steroids
MMP-2, MMP-9, MMP-13 [4] = experiment: MMP expression in PA treated HTM cells (Examples 17, 18); assay type: cell-based; details: PA treated HTM cells
Mmp-2, Mmp-9, Mmp-13 [5] = experiment: Mmp expression in Tg-MYOCY437H angle ring tissue (Example 19); assay type: in vivo, mouse; details: vs BSA treated eyes
Description: Eyes were flash frozen in liquid nitrogen after outflow facility determination and subsequently dissected on ice to obtain the angle ring tissues containing the TM, as previously described (Kumar, Shah et al. 2013). Dissected TM tissues were immersed in RNAlater solution (Invitrogen, Waltham, Mass., USA) and then snap-frozen and stored at −80° C. until RNA extraction. Tissue collected was pooled (four eyes) and homogenized in TRIzol reagent for RNA isolation, per manufacturer's instructions (Life Technologies, Carlsbad, Calif., USA). RNA concentration was determined with a Nanodrop ND-1000 Spectrophotometer (Thermo Scientific, Wilmington, Del., USA). cDNA was synthesized by using High-Capacity cDNA Reverse Transcription Kit (Applied Biosystems, Waltham, Mass., USA) according to manufacturer's protocol. Quantitative real-time PCR (qRT-PCR) was performed by using Green-2-Go qPCR Mastermix-ROX (Bio Basic, Amherst, N.Y., USA) on a QuantStudio 6 Flex thermal cycler (Applied Biosystems, Carlsbad, Calif., USA). mRNA expression of Plat, Plau, Pai-1, Mmp-2, Mmp-9, and Mmp-13 in angle ring tissues was determined. Primers were designed by using Primer-BLAST (https://www.ncbi.nlm.nih.gov/tools/primer-blast/index.cgi?LINK_LOC=BlastHome; in the public domain); primer sequences are listed in Table 2. Primer specificity was confirmed by agarose gel electrophoresis and multiple-sized amplification products were absent on inspection of melting curves. Target mRNA expression values were normalized to the expression levels of Rps11 (ribosomal protein S11). The relative fold change was calculated by using the ΔΔCt method (Hu, Wang et al. 2015). Outliers identified via the Thompson Tau test were removed from analysis.

tissue plasminogen activator [tPA]
prevention of steroid-induced IOP elevation ([1]; 100 μg in one eye, concurrent with prednisolone, 11 days): prevented IOP elevation | ocular observations ([1]; intravitreal tPA, prednisolone-treated sheep, some eyes): Transient injection and corneal clouding | IOP after tPA ([1]; within 24 h, all intravitreal doses tested (100-1000 μg), prednisolone continued): 14.1(±1.1) mmHg | Mmp-2 expression (Mmp-2, Mmp-9, Mmp-13 [2]): not significantly different | Mmp-9 expression (Mmp-2, Mmp-9, Mmp-13 [2]): significant upregulation | Mmp-13 expression (Mmp-2, Mmp-9, Mmp-13 [2]): significant upregulation | endogenous Plat expression [3]: did not cause significant changes | gene expression changes in Mmp-2, Mmp-9 and Mmp-13 ([3]; vs BSA): not significantly different | MMP-2 expression (MMP-2, MMP-9, MMP-13 [4]; between treatments): not significantly different | expression (FIG. 17C, MMP-9) (MMP-2, MMP-9, MMP-13 [4]; vs PA+BSA): significant upregulation | Mmp-2 expression (Mmp-2, Mmp-9, Mmp-13 [5]; 2 days): no significant difference | Mmp-9 expression (Mmp-2, Mmp-9, Mmp-13 [5]; 2 days): not detected | Mmp-13 expression (Mmp-2, Mmp-9, Mmp-13 [5]; 2 days): significantly higher | Mmp-2 expression (Mmp-2, Mmp-9, Mmp-13 [5]; 5 days): no significant difference | Mmp-9 expression (Mmp-2, Mmp-9, Mmp-13 [5]; 5 days): higher | Mmp-13 expression (Mmp-2, Mmp-9, Mmp-13 [5]; 5 days): significantly higher
